Data taken from patent US9630965B2, “Fused amino pyridine as HSP90 inhibitors” (Curis, Inc., priority 2007, dated 2017).

What was measured:
[1] = biological target: T1, HSP90 (Homo sapiens (Human), UniProt P07900); assay: HSP90 competition binding (fluorescence polarization) assay with FITC labeled GM; settings: 24 hours of incubation at 4° C.
Source text: (b) HSP90 Competition Binding (Fluorescence Polarization) Assay.
A fluorescein isothiocyanate (FITC) labeled GM was purchase from InvivoGen (ant-fgl-1). The interaction between HSP90 and labeled GM forms the basis for the fluorescence polarization assay. A free and fast-tumbling FITC labeled GM emits random light with respect to the plane of polarization plane of excited light, resulting in a lower polarization degree (mP) value. When GM is bound to HSP90, the complex tumble slower and the emitted light is polarized, resulting in a higher mP value. […] The assay buffer contained 20 mM HEPES (pH 7.3), 50 mM KCl, 1 mM DTT, 50 mM MgCl2, 20 mM Na2MoO4, 0.01% NP40 with 0.1 mg/ml bovine gamma-globulin.

[2] = biological target: T1, HSP90; assay: Hsp90 chaperone assay (refolding of heat-denatured luciferase); assay type: biochemical
Protocol: (a) An In Vitro Assay which Determines the Ability of a Test Compound to Inhibit Hsp90 Chaperone Activity.
The Hsp90 chaperone assay was performed to measure the ability of HSP90 protein to refold the heat-denatured luciferase protein. HSP90 was first incubated with different concentrations of test compounds in denaturation buffer (25 mM Tris, pH7.5, 8 mM MgSO4, 0.01% bovine gamma globulin and 10% glycerol) at room temperature for 30 min. Luciferase protein was added to denaturation mix and incubated at 50° C. for 8 min. The final concentration of HSP90 and luciferase in denaturation mixture were 0.375 μM and 0.125 μM respectively. A 5 μl sample of the denatured mix was diluted into 25 μl of renaturation buffer (25 mM Tris, pH7.5, 8 mM MgSO4, 0.01% bovine gamma globulin and 10% glycerol, 0.5 mM ATP, 2 mM DTT, 5 mM KCl, 0.3 μM HSP70 and 0.15 μM HSP40). The renaturation reaction was incubated at room temperature for 150 min, followed by dilution of 10 μl of the renatured sample into 90 μl of luciferin reagent (Luclite, PerkinElmer Life Science). The mixture was incubated at dark for 5 min before reading the luminescence signal on a TopCount plate reader (PerkinElmer Life Science).

Row | Structure (SMILES) | IC50 [1] [nM] | IC50 [2] [nM]
1 | C#CCCCn1c(Sc2cc3c(cc2Cl)OCO3)nc2c(N)nccc21 [Compound 2, 2-(6-chlorobenzo[d][1,3]dioxol-5-ylthio)-1-(pent-4-ynyl)-1H-imidazo[4,5-c]pyridin-4-amine] | 100 to 1000 | 100 to 1000
2 | C#CCCCn1c(Sc2cc(OC)ccc2I)nc2c(N)nccc21 [Compound 12, 2-(2-iodo-5-methoxyphenylthio)-1-(pent-4-ynyl)-1H-imidazo[4,5-c]pyridin-4-amine] | 100 to 1000 | 1000 to 10000
3 | C#CCCCn1c(Sc2cccc(OC)c2)nc2c(N)nccc21 [Compound 11, 2-(3-methoxyphenylthio)-1-(pent-4-ynyl)-1H-imidazo[4,5-c]pyridin-4-amine] | > 10000 | ≥ 10000
4 | C#CCCCn1c(Sc2cc(OC)ccc2Cl)nc2c(N)nccc21 [Compound 14, 2-(2-chloro-5-methoxyphenylthio)-1-(pent-4-ynyl)-1H-imidazo[4,5-c]pyridin-4-amine] | 1000 to 10000 | 1000 to 10000
5 | C#CCCCn1c(Sc2cc3c(cc2I)OCO3)nc2c(N)nccc21 [Compound 3, 2-(6-iodobenzo[d][1,3]dioxol-5-ylthio)-1-(pent-4-ynyl)-1H-imidazo[4,5-c]pyridin-4-amine] | < 100 | 100 to 1000
